Assay results reported in paper PMC8061941 (PLoS ONE, 2021).
“Also recorded” adds a separate entry of the source. Square brackets hold non-standard residues; d marks the D form. Ends that are not written are not given here. Peptide text beside a SMILES is read from it.

Assays:
[1] = Mass spectrometry analysis of Ringers solution from Ussing chambers during ex vivo recovery (degradation and fragment formation); assay type: in vitro ADME, pig; conditions: for Fragment detected in Ringers solution during ex vivo recovery: Ussing chambers with ischemia-injured jejunum in presence of parent peptide (LA or A6), MS analysis, N = 4; for half-life: pig, tissue, pH 7.4, Ussing chamber Ringers solution, ex vivo recovery 240 minutes, LC-MS/MS, n = 4, read-out: Half-life in ischemic injured jejunum tissue
From the text: After 45-minutes of ischemia, the pigs were euthanized, and intestinal segments were collected. Non-ischemic control tissue was also collected at this time. Following tissue collection, the seromuscular layer was stripped from the mucosa while the tissue was bathed in oxygenated (95% O2, 5% CO2) Ringer’s solution (in mmol/L: 154 Na^+, 6.3 K^+, 137 Cl^-, and 24 HCO3^-; pH 7.4). The mucosa was subsequently mounted in 1.1-cm^2 aperture Ussing chambers, as described in previous studies. Tissues were bathed on both the mucosal and serosal sides with 10mL Ringer’s solution. The mucosal bathing solution contained 10mM mannitol while the serosal side was osmotically balanced with 10mM glucose. Bathing solutions were oxygenated (95% O2, 5% CO2) and circulated in water-jacketed reservoirs. The spontaneous potential difference (PD) was measured using Ringer-agar bridges connected to calomel electrodes, and the PD was short-circuited through Ag-AgCl electrodes using a voltage clamp that was corrected for fluid resistance. TER (Ω·cm^2) was calculated from the spontaneous PD and short-circuit current (Isc). If the spontaneous PD was between -1.0 and 1.0 mV, tissues were current clamped at ± 100 μA for 5-seconds, and the PD was recorded. Isc and PD were recorded at 15-minute intervals over a 4-hour experiment. After tissues were mounted on Ussing chambers, all tissues were allowed to acclimate for a period of 30-minutes to establish stable baseline measurements, after which experimental, single-dose treatments of LA, LA fragments (F1, F2, or F3) with or without LA, A6, or A6 with or without A6 fragments (A6F1 or A6F2) were added to the apical chamber. For the microdosing regimen of LA, multiple doses at various concentrations of LA were added initially after the 30-minute acclimation period and every 45-minutes following this initial dose. Tissues were monitored by measuring transepithelial resistance (TER) for 240 minutes. Samples of Ringers solution were collected at select timepoints and quenched with 5% trifluoroacetic acid (TFA) solution (in 80% acetonitrile (ACN): 20% DI water). […] Standardization of ischemic injury severity between intestinal loops was standardized using a similar method as previously described in another intestinal mucosal injury model. First, T = 0 TER values from separate studies utilizing juvenile porcine intestinal ischemic tissue across three years were averaged (24 Ω·cm^2), and the standard deviation of this dataset was calculated (11 Ω·cm^2). Tissues with a T = 0 TER value exceeding one standard deviation of the mean (i.e., < 13 or > 35 Ω·cm^2) were excluded from experiments and data analysis.

[2] = molecular target: T1, aminopeptidase M (Sus scrofa, UniProt P15145); conditions: LA 0.2 mg/mL in SIF without pancreatin pH 6.5, 10 μM MgCl2, AM 0.66 unit/mL (porcine kidney), 37°C; UPLC-MS/MS; two separate runs
T1 sequence (P15145 1-963): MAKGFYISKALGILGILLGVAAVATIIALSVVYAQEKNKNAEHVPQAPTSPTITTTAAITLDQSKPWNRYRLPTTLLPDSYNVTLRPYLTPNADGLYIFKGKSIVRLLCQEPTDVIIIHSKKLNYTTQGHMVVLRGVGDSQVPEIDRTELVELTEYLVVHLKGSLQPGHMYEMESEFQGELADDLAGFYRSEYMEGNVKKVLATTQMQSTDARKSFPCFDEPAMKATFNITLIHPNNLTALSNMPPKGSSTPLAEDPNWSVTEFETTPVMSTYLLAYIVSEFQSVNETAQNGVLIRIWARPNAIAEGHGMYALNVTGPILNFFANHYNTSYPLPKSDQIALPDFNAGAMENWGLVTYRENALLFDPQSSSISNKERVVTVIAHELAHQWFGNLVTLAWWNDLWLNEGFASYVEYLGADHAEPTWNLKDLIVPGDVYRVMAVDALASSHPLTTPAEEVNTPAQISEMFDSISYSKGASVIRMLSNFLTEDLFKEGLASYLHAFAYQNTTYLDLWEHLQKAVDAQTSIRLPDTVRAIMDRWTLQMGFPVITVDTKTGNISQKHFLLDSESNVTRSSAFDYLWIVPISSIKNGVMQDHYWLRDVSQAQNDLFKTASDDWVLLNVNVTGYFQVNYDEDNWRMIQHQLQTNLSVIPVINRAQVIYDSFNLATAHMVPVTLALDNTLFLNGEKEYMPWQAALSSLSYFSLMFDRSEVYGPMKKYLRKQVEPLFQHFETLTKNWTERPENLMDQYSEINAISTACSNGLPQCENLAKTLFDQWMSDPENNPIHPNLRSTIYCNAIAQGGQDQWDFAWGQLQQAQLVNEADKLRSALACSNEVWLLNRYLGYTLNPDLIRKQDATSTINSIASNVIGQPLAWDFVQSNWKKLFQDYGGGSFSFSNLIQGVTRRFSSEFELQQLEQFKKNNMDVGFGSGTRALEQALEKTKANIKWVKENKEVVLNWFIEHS
Method: Aminopeptidase M (AM) degradation of LA in vitro was carried out as follows. LA solution (0.2 mg/mL) in simulated intestinal fluid (SIF) (without Pancreatin), USP XXII Formulation: Ricca Chemical) pH 6.5 containing MgCl2 (10 μM; catalyst support) was combined with AM (porcine kidney: Sigma) solution (final AM concentration is 0.66 unit/mL) in a vial. The combined mixture was incubated at 37°C in a shaker water bath, and samples for UPLC-MS analysis were collected at various timepoints quenched with 5% TFA solution (in 80% ACN: 20% DI water). Quenched samples were centrifuged at 13000xg for 5-minutes and the resulting supernatants were stored at -80°C for future MS analysis.
A simple and sensitive liquid chromatography/tandem mass spectrometric (LC-MS/MS) method was developed for the identification and quantification of LA and its digestive fragments in the enzyme digest solution and other matrices. Samples were prepared with simple ACN and TFA in water quenching of the enzyme activity and precipitation of protein(s). The supernatant was then diluted appropriately and analyzed directly using the UPLC-MS/MS method Chromatographic separations were achieved on a C18 reversed phase column using an ACN and TFA-water gradient. The detection was performed in MS/MS mode via positive electrospray ionization (ESI+) interface.
A Waters Quattro Xevo TOD mass spectrometer equipped with an electrospray ionization source and a Waters Acquity™ UPLC BEH system (Waters, Milford, MA, USA) with a binary solvent and a sample manager was used in this study. The LC column (Waters, C18, 50×2.1 mm, 1.7 μm) was operated at 35°C and the autosampler was operated at ambient temperature. A binary mobile phase (mobile phase A and mobile phase B) with a linear solvent gradient system was used for the chromatographic separations of larazotide and its digestive fragments. Mobile phase A, 0.02% TFA in water and mobile phase B, 0.02% TFA in ACN. The UPLC-MS/MS method was qualified for the determination and identification of larazotide and the larazotide digestive fragments in the enzyme digest solution.

[3] = Ringers solution bathing ischemia-injured porcine jejunal mucosa mounted in Ussing chambers (ex vivo recovery); conditions: Yorkshire crossbred pigs, up to 240 minutes
[4] = system: Aminopeptidase M (AM); assay: AM (porcine kidney: Sigma) in simulated intestinal fluid (SIF) (without Pancreatin) pH 6.5 containing MgCl2 (10 μM); conditions: 37°C, up to 180 minutes

| Compound | Fragment detected in Ringers solution during ex vivo recovery [1] | Degradation by aminopeptidase M and presence of fragments [2] | other results |
| --- | --- | --- | --- |
| CC(C)C[C@@H](NC(=O)[C@H](NC(=O)CN)C(C)C)C(=O)N[C@@H](C(=O)N[C@H](CCC(N)=O)C(=O)N1CCC[C@@H]1C(=O)NCC(=O)O)C(C)C [A6F1] (H-G[dV][dL][dV][dQ][dP]G-OH) | predominant fragment formed |  |  |
| CC(C)C[C@@H](NC(=O)[C@H](N)C(C)C)C(=O)N[C@@H](C(=O)N[C@H](CCC(N)=O)C(=O)N1CCC[C@@H]1C(=O)NCC(=O)O)C(C)C [A6F2] (H-[dV][dL][dV][dQ][dP]G-OH) | formation |  |  |
| CC(C)C[C@@H](NC(=O)[C@H](N)C(C)C)C(=O)N[C@@H](C(=O)N[C@H](CCC(N)=O)C(=O)N1CCC[C@@H]1C(=O)O)C(C)C [A6F4] (H-[dV][dL][dV][dQ][dP]-OH) | formation |  |  |
| CC(C)C[C@@H](NC(=O)[C@H](NC(=O)CNC(=O)CN)C(C)C)C(=O)N[C@@H](C(=O)N[C@H](CCC(N)=O)C(=O)N1CCC[C@@H]1C(=O)NCC(=O)O)C(C)C [A6] (H-GG[dV][dL][dV][dQ][dP]G-OH) |  |  | Stability to brush-border enzyme degradation compared with LA ([1]; ex vivo stability data, Ussing chamber): significantly more stable; half-life [1]: 78 min |
| GGVLVQP [F3] | highest concentration out of all four fragments |  |  |
| GGVLVQPG [LA, Larazotide acetate] |  | fragmented throughout the entirety of the experiment | half-life [1]: 35 min |
| GVLVQPG [F1] | are formed | found in all samples collected during the run |  |
| H-GGVLVQPG-OH |  |  | cleaved bond [3]: Gly-Val; also recorded: Pro-Gly, major; cleaved bond [4]: Gly-Val |
| VLVQP [F4] | detected |  |  |
| VLVQPG [F2] | are formed | not being detected after 90 minutes |  |
